Reference: patent US20260262643A1, “HERBICIDAL BENZOXAZINES” (FMC CORPORATION, priority 2022, published 2026)

Experiments:
soybean [1] = test: Test C postemergence; assay type: in vivo, Glycine max; details: 10 days
Procedure, shortened: (§1)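 Soil-applied (pre) and foliar (post, 1–2 leaf, 2–10 cm) sprays; surfactant-containing non-phytotoxic solvent vehicle; loam/sand substrate. Readout: visual % control at 10 d, greenhouse, versus untreated.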

blackgrass [2] = test: Test C preemergence; assay type: in vivo, Alopecurus myosuroides; details: 0 to 100 scale (0 no effect, 100 complete control); for Plant response rating, Blackgrass: Preemergence, 500 g ai/ha, visual rating after 10 days; for Blackgrass plant response rating: Test C, preemergence, 125 g ai/ha
Procedure, shortened: as §1

soybean [3] = test: Test C preemergence; assay type: in vivo, Glycine max; details: 0 to 100 scale (0 no effect, 100 complete control); for Soybean plant response rating: preemergence
Procedure, shortened: as §1

ragweed [4] = test: Test C preemergence; assay type: in vivo, Ambrosia artemisiifolia; details: 0 to 100 scale (0 no effect, 100 complete control); for Ragweed plant response rating: preemergence
Procedure, shortened: as §1

ragweed [5] = test: Test C postemergence; assay type: in vivo, Ambrosia artemisiifolia; details: 10 days
Procedure, shortened: as §1

oat, wild [6] = test: Test C postemergence; assay type: in vivo, Avena fatua; details: 10 days
Procedure, shortened: as §1

pigweed, palmer [7] = test: Test C postemergence; assay type: in vivo, Amaranthus palmeri; details: 10 days
Procedure, shortened: as §1

rice = test: Test D flooded paddy test; assay type: in vivo, Oryza sativa; details: 250 g ai/ha, applied to paddy water, visual rating after 13 to 14 days, scale 0 to 100 (0 no effect, 100 complete control)
Procedure, shortened: (§2)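 Compounds go straight into paddy water over 2-leaf plants in pots flooded to 3 cm. Greenhouse holding lasts 13 to 14 days. Injury is scored by eye against controls from 0 (none) to 100 (complete control).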

green foxtail [8] = test: Test C postemergence; assay type: in vivo, Setaria viridis; details: 10 days
Procedure, shortened: as §1

kochia [9] = test: Test C preemergence; assay type: in vivo, Bassia scoparia; details: 0 to 100 scale (0 no effect, 100 complete control); for Kochia plant response rating: preemergence
Procedure, shortened: as §1

kochia [10] = test: Test C postemergence; assay type: in vivo, Bassia scoparia; details: 10 days
Procedure, shortened: as §1

barnyardgrass [11] = test: Test D flooded paddy test; assay type: in vivo, Echinochloa crus-galli; details: 250 g ai/ha, applied to paddy water, visual rating after 13 to 14 days, scale 0 to 100 (0 no effect, 100 complete control)
Procedure, shortened: as §2

blackgrass [12] = test: Test C postemergence; assay type: in vivo, Alopecurus myosuroides; details: 10 days
Procedure, shortened: as §1

galium = test: Test C postemergence; assay type: in vivo, Galium aparine; details: 10 days
Procedure, shortened: as §1

wheat [13] = test: Test C postemergence; assay type: in vivo, Triticum aestivum; details: 10 days
Procedure, shortened: as §1

ducksalad = test: Test D flooded paddy test; assay type: in vivo, Heteranthera limosa; details: 250 g ai/ha, applied to paddy water, visual rating after 13 to 14 days, scale 0 to 100 (0 no effect, 100 complete control)
Procedure, shortened: as §2

ryegrass, Italian [14] = test: Test C postemergence; assay type: in vivo, Lolium multiflorum; details: 10 days
Procedure, shortened: as §1

sedge, umbrella = test: Test D flooded paddy test; assay type: in vivo, Cyperus difformis; details: 250 g ai/ha, applied to paddy water, visual rating after 13 to 14 days, scale 0 to 100 (0 no effect, 100 complete control)
Procedure, shortened: as §2

barnyardgrass [15] = test: Test C postemergence; assay type: in vivo, Echinochloa crusgalli; details: 10 days
Procedure, shortened: as §1

horseweed = test: Test C postemergence; assay type: in vivo, Erigeron canadensis; details: 10 days
Procedure, shortened: as §1

wheat [16] = test: Test C preemergence; assay type: in vivo, Triticum aestivum; details: 0 to 100 scale (0 no effect, 100 complete control); for Wheat plant response rating: preemergence
Procedure, shortened: as §1

corn [17] = test: Test C preemergence; assay type: in vivo, Zea mays; details: 0 to 100 scale (0 no effect, 100 complete control); for Corn plant response rating: preemergence
Procedure, shortened: as §1

corn [18] = test: Test C postemergence; assay type: in vivo, Zea mays; details: 10 days
Procedure, shortened: as §1

green foxtail [19] = test: Test C preemergence; assay type: in vivo, Setaria viridis; details: 0 to 100 scale (0 no effect, 100 complete control); for Foxtail, Green plant response rating: preemergence
Procedure, shortened: as §1

pigweed, palmer [20] = test: Test C preemergence; assay type: in vivo, Amaranthus palmeri; details: 0 to 100 scale (0 no effect, 100 complete control); for Pigweed, Palmer plant response rating: preemergence
Procedure, shortened: as §1

ryegrass, Italian [21] = test: Test C preemergence; assay type: in vivo, Lolium multiflorum; details: 0 to 100 scale (0 no effect, 100 complete control); for Ryegrass, Italian plant response rating: preemergence
Procedure, shortened: as §1

oat, wild [22] = test: Test C preemergence; assay type: in vivo, Avena fatua; details: 0 to 100 scale (0 no effect, 100 complete control); for Oat, Wild plant response rating: preemergence
Procedure, shortened: as §1

barnyardgrass [23] = test: Test C preemergence; assay type: in vivo, Echinochloa crusgalli; details: 0 to 100 scale (0 no effect, 100 complete control); for Plant response rating, Barnyardgrass: Preemergence, 500 g ai/ha, visual rating after 10 days; for Barnyardgrass plant response rating: Test C, preemergence, 125 g ai/ha
Procedure, shortened: as §1

[24] = 125 g ai/ha, postemergence, 0 to 100 scale, 0 no effect, 100 complete control
[25] = Postemergence, 500 g ai/ha, visual 0 to 100 scale (0 no effect, 100 complete control)
[26] = Preemergence, 500 g ai/ha, visual rating after 10 days

CC(C)c1ncn(-c2cc3c(c(C(=O)N4C[C@H](C)Oc5c(Cl)cccc54)c2)CCC3)n1 [Compound 174]
Plant response rating, Soybean (soybean [1]; [24]): 100
Plant response rating, Soybean (soybean [1]; [25]): 100
Plant response rating, Blackgrass (blackgrass [2]): 80
Blackgrass plant response rating (blackgrass [2]): 70
Plant response rating, Soybean (soybean [3]; [26]): 100
Soybean plant response rating (soybean [3]; Test C, 125 g ai/ha): 70
Plant response rating, Ragweed (ragweed [4]; [26]): 10
Ragweed plant response rating (ragweed [4]; Test C, 125 g ai/ha): 0
Plant response rating, Ragweed (ragweed [5]; [24]): 60
Plant response rating, Ragweed (ragweed [5]; [25]): 70
Plant response rating, Oat, Wild (oat, wild [6]; [24]): 50
Plant response rating, Oat, Wild (oat, wild [6]; [25]): 70
Plant response rating, Pigweed, Palmer (pigweed, palmer [7]; [24]): 90
Plant response rating, Pigweed, Palmer (pigweed, palmer [7]; [25]): 100
Plant response rating, Rice (Flood) (rice): 0
Plant response rating, Foxtail, Green (green foxtail [8]; [24]): 70
Plant response rating, Foxtail, Green (green foxtail [8]; [25]): 90
Plant response rating, Kochia (kochia [9]; [26]): 90
Kochia plant response rating (kochia [9]; Test C, 125 g ai/ha): 70
Plant response rating, Kochia (kochia [10]; [24]): 90
Plant response rating, Kochia (kochia [10]; [25]): 100
Plant response rating, Barnyardgrass (Flood) (barnyardgrass [11]): 0
Plant response rating, Blackgrass (blackgrass [12]; [24]): 60
Plant response rating, Blackgrass (blackgrass [12]; [25]): 90
Plant response rating, Galium (galium; [24]): 100
Plant response rating, Galium (galium; [25]): 100
Plant response rating, Wheat (wheat [13]; [24]): 20
Plant response rating, Wheat (wheat [13]; [25]): 40
Plant response rating, Ducksalad (Flood) (ducksalad): 0
Plant response rating, Ryegrass, Italian (ryegrass, Italian [14]; [24]): 50
Plant response rating, Ryegrass, Italian (ryegrass, Italian [14]; [25]): 70
Plant response rating, Sedge, Umbrella (Flood) (sedge, umbrella): 0
Plant response rating, Barnyardgrass (barnyardgrass [15]; [24]): 50
Plant response rating, Barnyardgrass (barnyardgrass [15]; [25]): 60
Plant response rating, Horseweed (horseweed; [24]): 0
Plant response rating, Horseweed (horseweed; [25]): 30
Plant response rating, Wheat (wheat [16]; [26]): 10
Wheat plant response rating (wheat [16]; Test C, 125 g ai/ha): 0
Plant response rating, Corn (corn [17]; [26]): 50
Corn plant response rating (corn [17]; Test C, 125 g ai/ha): 10
Plant response rating, Corn (corn [18]; [24]): 70
Plant response rating, Corn (corn [18]; [25]): 80
Plant response rating, Foxtail, Green (green foxtail [19]; [26]): 100
Foxtail, Green plant response rating (green foxtail [19]; Test C, 125 g ai/ha): 100
Plant response rating, Pigweed, Palmer (pigweed, palmer [20]; [26]): 100
Pigweed, Palmer plant response rating (pigweed, palmer [20]; Test C, 125 g ai/ha): 100
Plant response rating, Ryegrass, Italian (ryegrass, Italian [21]; [26]): 90
Ryegrass, Italian plant response rating (ryegrass, Italian [21]; Test C, 125 g ai/ha): 80
Plant response rating, Oat, Wild (oat, wild [22]; [26]): 80
Oat, Wild plant response rating (oat, wild [22]; Test C, 125 g ai/ha): 20
Plant response rating, Barnyardgrass (barnyardgrass [23]): 100
Barnyardgrass plant response rating (barnyardgrass [23]): 80

Cc1ccc(-n2cnc(CC3CC3)n2)cc1C(=O)N1C[C@H](C)Oc2c(Cl)cccc21 [Compound 273]
Plant response rating, Soybean (soybean [1]; [24]): 100
Plant response rating, Blackgrass (blackgrass [2]): 50
Blackgrass plant response rating (blackgrass [2]): 0
Soybean plant response rating (soybean [3]; 500 g ai/ha): 70
Soybean plant response rating (soybean [3]; Test C, 125 g ai/ha): 10
Ragweed plant response rating (ragweed [4]; 500 g ai/ha): 0
Ragweed plant response rating (ragweed [4]; Test C, 125 g ai/ha): 0
Plant response rating, Ragweed (ragweed [5]; [24]): 40
Plant response rating, Oat, Wild (oat, wild [6]; [24]): 0
Plant response rating, Pigweed, Palmer (pigweed, palmer [7]; [24]): 90
Plant response rating, Rice (Flood) (rice): 0
Plant response rating, Foxtail, Green (green foxtail [8]; [24]): 40
Plant response rating, Foxtail, Green (green foxtail [8]; [25]): 90
Kochia plant response rating (kochia [9]; 500 g ai/ha): 90
Kochia plant response rating (kochia [9]; Test C, 125 g ai/ha): 60
Plant response rating, Kochia (kochia [10]; [24]): 70
Plant response rating, Barnyardgrass (Flood) (barnyardgrass [11]): 0
Plant response rating, Blackgrass (blackgrass [12]; [24]): 10
Plant response rating, Blackgrass (blackgrass [12]; [25]): 80
Plant response rating, Galium (galium; [24]): 70
Plant response rating, Galium (galium; [25]): 100
Plant response rating, Wheat (wheat [13]; [24]): 10
Plant response rating, Ducksalad (Flood) (ducksalad): 15
Plant response rating, Ryegrass, Italian (ryegrass, Italian [14]; [24]): 0
Plant response rating, Sedge, Umbrella (Flood) (sedge, umbrella): 40
Plant response rating, Barnyardgrass (barnyardgrass [15]; [24]): 30
Plant response rating, Barnyardgrass (barnyardgrass [15]; [25]): 70
Plant response rating, Horseweed (horseweed; [24]): 0
Plant response rating, Horseweed (horseweed; [25]): 40
Wheat plant response rating (wheat [16]; 500 g ai/ha): 40
Wheat plant response rating (wheat [16]; Test C, 125 g ai/ha): 0
Corn plant response rating (corn [17]; 500 g ai/ha): 10
Corn plant response rating (corn [17]; Test C, 125 g ai/ha): 0
Plant response rating, Corn (corn [18]; [24]): 10
Plant response rating, Corn (corn [18]; [25]): 30
Foxtail, Green plant response rating (green foxtail [19]; 500 g ai/ha): 100
Foxtail, Green plant response rating (green foxtail [19]; Test C, 125 g ai/ha): 100
Pigweed, Palmer plant response rating (pigweed, palmer [20]; 500 g ai/ha): 100
Pigweed, Palmer plant response rating (pigweed, palmer [20]; Test C, 125 g ai/ha): 90
Ryegrass, Italian plant response rating (ryegrass, Italian [21]; 500 g ai/ha): 90
Ryegrass, Italian plant response rating (ryegrass, Italian [21]; Test C, 125 g ai/ha): 70
Oat, Wild plant response rating (oat, wild [22]; 500 g ai/ha): 80
Oat, Wild plant response rating (oat, wild [22]; Test C, 125 g ai/ha): 20
Plant response rating, Barnyardgrass (barnyardgrass [23]): 100
Barnyardgrass plant response rating (barnyardgrass [23]): 40
